Laboratory results published in the NIST ThermoML archive (doi:10.1021/je800463k).
± gives the expanded uncertainty stated by the source.

Assay: mn = molality of the nth substance listed, in mol/kg
Settings: 101 kPa, Liquid; for electrical conductivity: Frequency=0.001 MHz, Alternating current cell with electrodes; for speed of sound: Frequency=2 MHz; for mass density: Pycnometric method

CC(=O)[O-].CC(=O)[O-].[Mg+2] [magnesium acetate] + CO
Settings	electrical conductivity [S/m]	mass density [kg/m3]	speed of sound [m/s]	viscosity [mPa·s]
273.15 K, m1 = 0.0059	0.0325 ± 0.0001	–	1185.9 ± 6.8	–
273.15 K, m1 = 0.0093	0.055 ± 0.0001	–	1186.1 ± 6.8	–
273.15 K, m1 = 0.014	–	–	–	0.821 ± 0.021
273.15 K, m1 = 0.018	0.0621 ± 0.0001	–	1186.2 ± 6.8	0.8229 ± 0.021
273.15 K, m1 = 0.0339	0.0796 ± 0.0001	–	–	0.8417 ± 0.022
273.15 K, m1 = 0.053	0.0922 ± 0.0001	–	1190.2 ± 6.8	–
273.15 K, m1 = 0.0646	0.0965 ± 0.0001	–	–	0.8642 ± 0.022
273.15 K, m1 = 0.0855	0.106 ± 0.0001	–	1190.1 ± 6.8	–
273.15 K, m1 = 0.1012	–	–	–	0.9108 ± 0.023
273.15 K, m1 = 0.1024	0.1148 ± 0.0001	–	1194.5 ± 6.8	–
273.15 K, m1 = 0.13	–	–	–	0.9308 ± 0.024
273.15 K, m1 = 0.1402	0.1289 ± 0.0001	–	1194.6 ± 6.8	0.9493 ± 0.024
273.15 K, m1 = 0.1455	0.1307 ± 0.0001	–	1192.6 ± 6.8	–
273.15 K, m1 = 0.17	–	–	–	0.9637 ± 0.024
273.15 K, m1 = 0.1837	0.1414 ± 0.0001	–	1195.3 ± 6.8	–
273.15 K, m1 = 0.2003	–	–	–	0.9889 ± 0.025
273.15 K, m1 = 0.2192	–	–	1196.7 ± 6.8	–
273.15 K, m1 = 0.2422	0.1507 ± 0.0001	–	1196.9 ± 6.8	1.042 ± 0.026
273.15 K, m1 = 0.2453	–	–	–	1.036 ± 0.026
273.15 K, m1 = 0.2889	0.1565 ± 0.0001	–	1197.1 ± 6.8	1.091 ± 0.027
273.15 K, m1 = 0.3042	–	–	1199.6 ± 6.8	–
278.15 K, m1 = 0.0059	0.0329 ± 0.0001	–	1169.1 ± 6.7	–
278.15 K, m1 = 0.0093	0.0556 ± 0.0001	–	1169.4 ± 6.7	–
278.15 K, m1 = 0.014	–	–	–	0.7547 ± 0.02
278.15 K, m1 = 0.018	0.0627 ± 0.0001	–	1170 ± 6.7	0.7565 ± 0.02
278.15 K, m1 = 0.0339	0.0807 ± 0.0001	–	–	0.7732 ± 0.02
278.15 K, m1 = 0.053	0.0937 ± 0.0001	–	1172.6 ± 6.7	–
278.15 K, m1 = 0.0646	0.0989 ± 0.0001	–	–	0.7927 ± 0.021
278.15 K, m1 = 0.0855	0.1084 ± 0.0001	–	1176.6 ± 6.7	–
278.15 K, m1 = 0.1012	–	–	–	0.8332 ± 0.021
278.15 K, m1 = 0.1024	0.1174 ± 0.0001	–	1176.8 ± 6.7	–
278.15 K, m1 = 0.13	–	–	–	0.8509 ± 0.022
278.15 K, m1 = 0.1402	0.1326 ± 0.0001	–	1177.7 ± 6.7	0.867 ± 0.022
278.15 K, m1 = 0.1455	0.135 ± 0.0001	–	1175 ± 6.7	–
278.15 K, m1 = 0.17	–	–	–	0.8812 ± 0.022
278.15 K, m1 = 0.1837	0.1448 ± 0.0001	–	1179.3 ± 6.7	–
278.15 K, m1 = 0.2003	–	–	–	0.9025 ± 0.023
278.15 K, m1 = 0.2192	–	–	1181 ± 6.8	–
278.15 K, m1 = 0.2422	0.153 ± 0.0001	–	1179.9 ± 6.7	0.9469 ± 0.024
278.15 K, m1 = 0.2453	–	–	–	0.9437 ± 0.024
278.15 K, m1 = 0.2889	0.1605 ± 0.0001	–	1180.9 ± 6.8	0.9892 ± 0.025
278.15 K, m1 = 0.3042	–	–	1181.7 ± 6.8	–
283.15 K, m1 = 0.0059	0.0334 ± 0.0001	–	1152.8 ± 6.6	–
283.15 K, m1 = 0.0093	0.0562 ± 0.0001	–	1153.2 ± 6.6	–
283.15 K, m1 = 0.014	–	–	–	0.6979 ± 0.018
283.15 K, m1 = 0.018	0.0634 ± 0.0001	–	1154.7 ± 6.6	0.6998 ± 0.018
283.15 K, m1 = 0.0339	0.0818 ± 0.0001	–	–	0.7143 ± 0.019
283.15 K, m1 = 0.053	0.0954 ± 0.0001	–	1156.3 ± 6.7	–
283.15 K, m1 = 0.0646	0.1008 ± 0.0001	–	–	0.7304 ± 0.019
283.15 K, m1 = 0.0855	0.1089 ± 0.0001	–	1156.5 ± 6.7	–
283.15 K, m1 = 0.1012	–	–	–	0.7669 ± 0.02
283.15 K, m1 = 0.1024	0.1198 ± 0.0001	–	1160.3 ± 6.7	–
283.15 K, m1 = 0.13	–	–	–	0.7824 ± 0.02
283.15 K, m1 = 0.1402	0.1355 ± 0.0001	–	1160.4 ± 6.7	0.7965 ± 0.021
283.15 K, m1 = 0.1455	0.1388 ± 0.0001	–	1158.5 ± 6.7	–
283.15 K, m1 = 0.17	–	–	–	0.8105 ± 0.021
283.15 K, m1 = 0.1837	0.1465 ± 0.0001	–	1161.7 ± 6.7	–
283.15 K, m1 = 0.2003	–	–	–	0.8289 ± 0.021
283.15 K, m1 = 0.2192	–	–	1162.8 ± 6.7	–
283.15 K, m1 = 0.2422	0.1656 ± 0.0001	–	1163.1 ± 6.7	0.8664 ± 0.022
283.15 K, m1 = 0.2453	–	–	–	0.8643 ± 0.022
283.15 K, m1 = 0.2889	0.1642 ± 0.0001	–	1163.5 ± 6.7	0.8961 ± 0.023
283.15 K, m1 = 0.3042	–	–	1165.8 ± 6.7	–
288.15 K, m1 = 0.0059	0.0341 ± 0.0001	–	1135.7 ± 6.6	–
288.15 K, m1 = 0.0093	0.0566 ± 0.0001	–	1136.1 ± 6.6	–
288.15 K, m1 = 0.014	–	–	–	0.6458 ± 0.017
288.15 K, m1 = 0.018	0.0642 ± 0.0001	–	1137.4 ± 6.6	0.6478 ± 0.017
288.15 K, m1 = 0.0339	0.0831 ± 0.0001	–	–	0.6606 ± 0.018
288.15 K, m1 = 0.053	0.0969 ± 0.0001	–	1138.1 ± 6.6	–
288.15 K, m1 = 0.0646	0.1033 ± 0.0001	–	–	0.6743 ± 0.018
288.15 K, m1 = 0.0855	0.1114 ± 0.0001	–	1139.7 ± 6.6	–
288.15 K, m1 = 0.1012	–	–	–	0.7063 ± 0.019
288.15 K, m1 = 0.1024	0.1227 ± 0.0001	–	1142.7 ± 6.6	–
288.15 K, m1 = 0.13	–	–	–	0.7206 ± 0.019
288.15 K, m1 = 0.1402	0.139 ± 0.0001	–	1144.3 ± 6.6	0.7286 ± 0.019
288.15 K, m1 = 0.1455	0.1428 ± 0.0001	–	1141.6 ± 6.6	–
288.15 K, m1 = 0.17	–	–	–	0.7465 ± 0.019
288.15 K, m1 = 0.1837	0.1496 ± 0.0001	–	1143.8 ± 6.6	–
288.15 K, m1 = 0.2003	–	–	–	0.7639 ± 0.02
288.15 K, m1 = 0.2192	–	–	1147.5 ± 6.6	–
288.15 K, m1 = 0.2422	0.1673 ± 0.0001	–	1146.4 ± 6.6	0.7865 ± 0.02
288.15 K, m1 = 0.2453	–	–	–	0.7929 ± 0.021
288.15 K, m1 = 0.2889	0.1692 ± 0.0001	–	1147 ± 6.6	0.8205 ± 0.021
288.15 K, m1 = 0.3042	–	–	1149.4 ± 6.6	–
293.15 K, m1 = 0.0059	0.0349 ± 0.0001	–	1119 ± 6.5	–
293.15 K, m1 = 0.0093	0.0575 ± 0.0001	–	1118.9 ± 6.5	–
293.15 K, m1 = 0.014	–	–	–	0.6 ± 0.016
293.15 K, m1 = 0.018	0.0649 ± 0.0001	–	1120.9 ± 6.5	0.6022 ± 0.016
293.15 K, m1 = 0.0339	0.0843 ± 0.0001	–	–	0.6132 ± 0.017
293.15 K, m1 = 0.053	0.0985 ± 0.0001	–	1121.1 ± 6.5	–
293.15 K, m1 = 0.0646	0.1055 ± 0.0001	–	–	0.6249 ± 0.017
293.15 K, m1 = 0.0855	0.1149 ± 0.0001	–	1122.8 ± 6.5	–
293.15 K, m1 = 0.1012	–	–	–	0.6535 ± 0.017
293.15 K, m1 = 0.1024	0.1258 ± 0.0001	–	1126 ± 6.5	–
293.15 K, m1 = 0.13	–	–	–	0.666 ± 0.018
293.15 K, m1 = 0.1402	0.1426 ± 0.0001	–	1128.4 ± 6.5	0.6731 ± 0.018
293.15 K, m1 = 0.1455	0.1463 ± 0.0001	–	1124.4 ± 6.5	–
293.15 K, m1 = 0.17	–	–	–	0.6902 ± 0.018
293.15 K, m1 = 0.1837	0.1536 ± 0.0001	–	1127.3 ± 6.5	–
293.15 K, m1 = 0.2003	–	–	–	0.7039 ± 0.018
293.15 K, m1 = 0.2192	–	–	1130.4 ± 6.6	–
293.15 K, m1 = 0.2422	0.1693 ± 0.0001	–	1129.6 ± 6.5	0.7255 ± 0.019
293.15 K, m1 = 0.2453	–	–	–	0.7305 ± 0.019
293.15 K, m1 = 0.2889	0.1735 ± 0.0001	–	1131.7 ± 6.6	0.7548 ± 0.02
293.15 K, m1 = 0.3042	–	–	1132.6 ± 6.6	–
296.65 K, m1 = 0.1112	–	798.51 ± 2.5	–	–
297.55 K, m1 = 0.2192	–	803.53 ± 2.9	–	–
298.15 K, m1 = 0.0059	0.0355 ± 0.0001	–	1102.5 ± 6.4	–
298.15 K, m1 = 0.0093	0.058 ± 0.0001	–	1102 ± 6.4	–
298.15 K, m1 = 0.014	–	–	–	0.5583 ± 0.015
298.15 K, m1 = 0.018	0.0656 ± 0.0001	–	1103.5 ± 6.4	0.5605 ± 0.015
298.15 K, m1 = 0.0339	0.0856 ± 0.0001	–	–	0.5703 ± 0.016
298.15 K, m1 = 0.053	0.1 ± 0.0001	–	1104.6 ± 6.4	–
298.15 K, m1 = 0.0646	0.108 ± 0.0001	–	–	0.5802 ± 0.016
298.15 K, m1 = 0.0855	0.1183 ± 0.0001	–	1106.7 ± 6.5	–
298.15 K, m1 = 0.1012	–	–	–	0.6059 ± 0.016
298.15 K, m1 = 0.1024	0.1284 ± 0.0001	–	1109.8 ± 6.5	–
298.15 K, m1 = 0.13	–	–	–	0.617 ± 0.017
298.15 K, m1 = 0.1402	0.1458 ± 0.0001	–	1111.6 ± 6.5	0.6234 ± 0.017
298.15 K, m1 = 0.1455	0.1485 ± 0.0001	–	1108.4 ± 6.5	–
298.15 K, m1 = 0.17	–	–	–	0.6396 ± 0.017
298.15 K, m1 = 0.1837	0.1578 ± 0.0001	–	1110.9 ± 6.5	–
298.15 K, m1 = 0.2003	–	–	–	0.6529 ± 0.017
298.15 K, m1 = 0.2192	–	–	1113.4 ± 6.5	–
298.15 K, m1 = 0.2422	0.1717 ± 0.0001	–	1112.7 ± 6.5	0.6701 ± 0.018
298.15 K, m1 = 0.2453	–	–	–	0.6746 ± 0.018
298.15 K, m1 = 0.2889	0.1776 ± 0.0001	–	1115.2 ± 6.5	0.6956 ± 0.018
298.15 K, m1 = 0.3042	–	–	1116.1 ± 6.5	–
298.5 K, m1 = 0.0646	–	793.38 ± 2	–	–
299 K, m1 = 0.0339	–	790.63 ± 1.2	–	–
299.1 K, m1 = 0.014	–	788.94 ± 0.86	–	–
299.25 K, m1 = 0.1798	–	800.6 ± 2.4	–	–
299.3 K, m1 = 0.2192	–	801.81 ± 4.2	–	–
299.35 K, m1 = 0.1112	–	795.95 ± 2.9	–	–
